“Also recorded” adds a separate entry of the source.
Columns and labels:
[1] = test system: Influenza A virus WU95 (containing a H3 protein of a human H3N2 virus); format: binding
H3-containg WU95 virus = test: Hemagglutination inhibition; format: cell-based, Influenza A virus; conditions: relative to the potency of 8, corrected for valency
IAV WU95 = format: cell-based, Influenza A virus

C#CCO[C@@H]1O[C@H](CO)[C@@H](O[C@@H]2O[C@H](CO[C@]3(C(=O)O)C[C@H](O)[C@@H](NC(C)=O)[C@H]([C@H](O)[C@H](O)CO)O3)[C@H](O)[C@H](O)[C@H]2O)[C@H](O)[C@H]1NC(C)=O [Compound 7]
rel pot. (BLI) [1]: 1 (1) | rel pot. per sugar (BLI) [1]: 1 (1)

CC(=O)N[C@H]1[C@H]([C@H](O)[C@H](O)CO)O[C@@](OC[C@H]2O[C@@H](O[C@H]3[C@H](O)[C@@H](O)[C@H](OCc4cn(CCCC(=O)Nc5cccc(-c6cc(-c7cccc(NC(=O)CCCn8cc(CO[C@@H]9O[C@H](CO)[C@@H](O[C@@H]%10O[C@H](CO[C@]%11(C(=O)O)C[C@H](O)[C@@H](NC(C)=O)[C@H]([C@H](O)[C@H](O)CO)O%11)[C@H](O)[C@H](O)[C@H]%10O)[C@H](O)[C@H]9O)nn8)c7)cc(-c7cccc(NC(=O)CCCn8cc(CO[C@@H]9O[C@H](CO)[C@@H](O[C@@H]%10O[C@H](CO[C@]%11(C(=O)O)C[C@H](O)[C@@H](NC(C)=O)[C@H]([C@H](O)[C@H](O)CO)O%11)[C@H](O)[C@H](O)[C@H]%10O)[C@H](O)[C@H]9O)nn8)c7)c6)c5)nn4)O[C@@H]3CO)[C@H](O)[C@@H](O)[C@H]2O)(C(=O)O)C[C@@H]1O [Compound 10]
rel pot. per sugar (HAI) (H3-containg WU95 virus): 2 | rel pot. (BLI) [1]: 20 (7) | rel pot. per sugar (BLI) [1]: 20 (7)

CC(=O)N[C@H]1[C@H](O[C@H]2[C@@H](O)[C@@H](CO)O[C@@H](O[C@H]3[C@H](O)[C@@H](O)[C@H](n4cc(-c5ccc(-c6cn(CCCC(=O)Nc7cccc(-c8cc(-c9cccc(NC(=O)CCCn%10cc(-c%11ccc(-c%12cn([C@@H]%13O[C@H](CO)[C@@H](O[C@@H]%14O[C@H](CO)[C@H](O)[C@H](O[C@@H]%15O[C@H](CO)[C@@H](O[C@@H]%16O[C@H](CO)[C@H](O)[C@H](O)[C@H]%16O)[C@H](O)[C@H]%15NC(C)=O)[C@H]%14O)[C@H](O)[C@H]%13O)nn%12)cc%11)nn%10)c9)cc(-c9cccc(NC(=O)CCCn%10cc(-c%11ccc(-c%12cn([C@@H]%13O[C@H](CO)[C@@H](O[C@@H]%14O[C@H](CO)[C@H](O)[C@H](O[C@@H]%15O[C@H](CO)[C@@H](O[C@@H]%16O[C@H](CO)[C@H](O)[C@H](O)[C@H]%16O)[C@H](O)[C@H]%15NC(C)=O)[C@H]%14O)[C@H](O)[C@H]%13O)nn%12)cc%11)nn%10)c9)c8)c7)nn6)cc5)nn4)O[C@@H]3CO)[C@@H]2O)O[C@H](CO)[C@@H](O[C@@H]2O[C@H](CO)[C@H](O)[C@H](O)[C@H]2O)[C@@H]1O [Compound 13]
IC50 BLI [1]: did not yield any detectable inhibition in the assay up to the 20 μM; also recorded: no inhib at 20 μM

CC(=O)N[C@H]1[C@H]([C@H](O)[C@H](O)CO)O[C@@](OC[C@H]2O[C@@H](O[C@H]3[C@H](O)[C@@H](O)[C@H](OCc4cn([C@@H]5O[C@H](CO)[C@@H](n6cc(-c7ccc(-c8cn([C@H]9[C@H](O)[C@@H](O)[C@H](n%10cc(CO[C@@H]%11O[C@H](CO)[C@@H](O[C@@H]%12O[C@H](CO[C@]%13(C(=O)O)C[C@H](O)[C@@H](NC(C)=O)[C@H]([C@H](O)[C@H](O)CO)O%13)[C@H](O)[C@H](O)[C@H]%12O)[C@H](O)[C@H]%11O)nn%10)O[C@@H]9CO)nn8)cc7)nn6)[C@H](O)[C@H]5O)nn4)O[C@@H]3CO)[C@H](O)[C@@H](O)[C@H]2O)(C(=O)O)C[C@@H]1O [Compound 17]
rel pot. (BLI) [1]: 23 (12) | rel pot. per sugar (BLI) [1]: 23 (12)

CCC(CC)O[C@@H]1C=C(C(=O)O)C[C@H](N)[C@H]1NC(C)=O [oseltamivir carboxylate]
effect on infection, single agent (IAV WU95): little effect

From publication PMC6627469 (Journal of Medicinal Chemistry, 2019)
